Assay results published in patent US10442804B2, “Compounds for the treatment of hepatitis B virus infection” (Gilead Sciences, Inc., priority 2017, dated 2019).
Where two headings read alike, the source gives them in different places.

Columns and labels:
[1] = system: HBV-infected NTCP-HepG2 cells, secreted HBsAg; assay: microbe, parasite or virus in culture; format: cell-based, hepatitis B virus (genotype D, AD38-derived); conditions: secreted HBsAg in supernatant after 5 days, geometric mean of minimum four determinations, read-out: NTCP HBsAg EC50
Method: NTCP-HepG2 Antiviral Assay for Secreted HBsAg
HepG2 cells stably expressing sodium-taurocholate cotransporting polypeptide (NTCP-HepG2) were grown in Dulbecco's Modified Eagle Medium (DMEM) without sodium pyruvate (Thermo Fisher Scientific, Waltham, Mass.) supplemented with 10% fetal bovine serum, 2 mM L-glutamine, 1% penicillin/streptomycin, and 0.25 mg/mL G-418. NTCP-HepG2 cells were infected with 4000 genome equivalent per cell of genotype D (AD38-derived) HBV in DMEM without sodium pyruvate (Thermo Fisher Scientific, Waltham, Mass.) supplemented with 2% fetal bovine serum, 2 mM L-glutamine, 1% penicillin/streptomycin, 2.5% DMSO, and 4% PEG 8000 (Promega, Madison, Wis.). After 24-hour incubation, cells were washed three times with OptiMEM (Thermo Fisher Scientific, Waltham, Mass.) and fed with fresh DMEM without sodium pyruvate (Thermo Fisher Scientific, Waltham, Mass.) supplemented with 2% fetal bovine serum, 2 mM L-glutamine, 1% penicillin/streptomycin, and 2.5% DMSO. At 4 days after infection, infected NTCP-HepG2 cells were seeded on 384-well plates pre-coated with collagen at a density of 20000 cells per well containing serially diluted compounds of the present disclosure or DMSO (0.5%) in a final volume of 80 μl of DMEM without sodium pyruvate (Thermo Fisher Scientific, Waltham, Mass.) supplemented with 2% fetal bovine serum, 2 mM L-glutamine, 1% penicillin/streptomycin, and 1% DMSO. After an incubation time of 5 days, cell culture supernatant was collected and measured for HBsAg.
Secreted HBsAg in the supernatant were measured using a multiplex chemiluminescent MSD assay (Meso Scale Discovery, Rockville, Md.) using capture and detection antibody pairs specific for HBsAg. The EC50 values were calculated from the fit of the dose-response curves to a four-parameter equation. All EC50 values represent geometric mean values of a minimum of four determinations.

MT-4 cytotoxicity assay = format: cell-based, human; conditions: human
Method: Biological Example 2: MT-4 Cytotoxicity Assay
The MT-4 cell line (HTLV-1 transformed, human T lymphoblastoid cells) was obtained from the NIH AIDS Reagent program (Bethesda, Md.). MT-4 cells were maintained in RPMI-1640 media (Thermo Fisher Scientific, Waltham, Mass.) supplemented with 10% fetal bovine serum, 100 Units/mL penicillin, and 100 μg/mL streptomycin. For the MT-4 cytotoxicity assay, 0.4 μL of serially diluted solutions of certain compounds disclosed herein were added to 40 μL of cell maintenance media in 384-well black, solid bottom plate using a Biomek FX workstation (Beckman Coulter, Brea, Calif.). Two thousand cells in 35 μL were added to each well using a Biotek uFlow Workstation (Biotek, Winooski, Vt.). Each assay plate contained 10 μM puromycin (final concentration) and 0.5% DMSO in RPMI-1640 media as positive and negative controls, respectively. Assay plates were incubated for five days at 37° C. in an incubator set at 5% CO2 and 90% humidity. After five days, 22 μL of Cell Titer Glo reagent (Promega, Madison, Wis.) was added to the assay plates with a Biotek uFlow Workstation. Plates were subsequently placed on an Envision Plate Reader (Perkin Elmer, Waltham, Mass.) for five minutes before the luminescence signal was read. CC50 values were defined as the compound concentration that caused a 50% decrease in luminescence signal, and were calculated by non-linear regression using Pipeline Pilot software by applying a four parameter fit equation (Accelrys, San Diego, Calif.) and are reported in the following Table 1.

[2] = five days, Cell Titer Glo luminescence, read-out: MT-4 CC50

COCCCOc1cc2c(cc1Cl)-c1cc(=O)c(C(=O)O)cn1[C@H]1[C@H]2CCC1(C)C (racemic) [Example 31, trans-10-Chloro-11-(3-methoxypropoxy)-3,3-dimethyl-7-oxo-1,2,3,3a,7,12b-hexahydrocyclopenta[c]pyrido[2,1-a]isoquinoline-6-carboxylic acid]
EC50 [1]: 0.0064 µM
CC50 at 5 days (MT-4 cytotoxicity assay; [2]): > 10 µM

COCCCOc1cc2c(cc1Cl)-c1cc(=O)c(C(=O)O)cn1N1CCC[C@H]21 (single isomer, unassigned) [Example 2]
EC50 ([1]; Hepatitis B virus, 120 h): 0.11 µM
CC50 at 5 days (MT-4 cytotoxicity assay; [2]): 3.9 µM

COCCCOc1cc2c(cc1Cl)-c1cc(=O)c(C(=O)O)cn1N1CCC[C@@H]21 (single isomer, unassigned) [Example 3]
EC50 ([1]; Hepatitis B virus, 120 h): > 1 µM
CC50 at 5 days (MT-4 cytotoxicity assay; [2]): 9.1 µM

COCCCOc1cc2c(cc1Cl)-c1cc(=O)c(C(=O)O)cn1N1[C@H]2CCC1(C)C (single isomer, unassigned) [Example 6]
EC50 ([1]; Hepatitis B virus, 120 h): 0.3 µM
CC50 at 5 days (MT-4 cytotoxicity assay; [2]): > 10 µM

COCCCOc1cc2c(cc1Cl)-c1cc(=O)c(C(=O)O)cn1N1[C@H](C)CC[C@H]21 (single isomer, unassigned) [Example 7]
EC50 ([1]; Hepatitis B virus, 120 h): 0.032 µM
CC50 at 5 days (MT-4 cytotoxicity assay; [2]): > 10 µM

COCCCOc1cc2c(cc1Cl)-c1cc(=O)c(C(=O)O)cn1N1[C@@H](C)CC[C@@H]21 (single isomer, unassigned) [Example 8]
EC50 ([1]; Hepatitis B virus, 120 h): 0.2 µM
CC50 at 5 days (MT-4 cytotoxicity assay; [2]): > 10 µM

COCCCOc1cc2c(cc1Cl)-c1cc(=O)c(C(=O)O)cn1N1[C@H](C)CC[C@@H]21 (single isomer, unassigned) [Example 9]
EC50 ([1]; Hepatitis B virus, 120 h): 0.045 µM
CC50 at 5 days (MT-4 cytotoxicity assay; [2]): > 10 µM

COCCCOc1cc2c(cc1Cl)-c1cc(=O)c(C(=O)O)cn1N1[C@@H]2CC[C@@H]1C (single isomer, unassigned) [Example 10]
EC50 ([1]; Hepatitis B virus, 120 h): 0.0057 µM
CC50 at 5 days (MT-4 cytotoxicity assay; [2]): > 10 µM

COCCCOc1cc2c(cc1Cl)-c1cc(=O)c(C(=O)O)cn1N1[C@@H]2CCCC1(C)C (single isomer, unassigned) [Example 12]
EC50 ([1]; Hepatitis B virus, 120 h): 0.0025 µM
CC50 at 5 days (MT-4 cytotoxicity assay; [2]): 8.8 µM

COCCCOc1cc2c(cc1Cl)-c1cc(=O)c(C(=O)O)cn1N1[C@H]2CCCC1(C)C (single isomer, unassigned) [Example 13]
EC50 ([1]; Hepatitis B virus, 120 h): 0.034 µM
CC50 at 5 days (MT-4 cytotoxicity assay; [2]): > 10 µM

COCCCOc1cc2c(cc1OC(F)F)-c1cc(=O)c(C(=O)O)cn1N1[C@@H]2CCC1(C)C (single isomer, unassigned) [Example 19]
EC50 ([1]; Hepatitis B virus, 120 h): 0.0012 µM
CC50 at 5 days (MT-4 cytotoxicity assay; [2]): > 10 µM

COCCCOc1cc2c(cc1OC(F)F)-c1cc(=O)c(C(=O)O)cn1N1[C@H]2CCC1(C)C (single isomer, unassigned) [Example 20]
EC50 ([1]; Hepatitis B virus, 120 h): 0.043 µM
CC50 at 5 days (MT-4 cytotoxicity assay; [2]): > 10 µM

COCCCOc1cc2c(cc1Cl)-c1cc(=O)c(C(=O)O)cn1N1CC(C)(C)C[C@H]21 (single isomer, unassigned) [Example 29]
EC50 ([1]; Hepatitis B virus, 120 h): 0.014 µM
CC50 at 5 days (MT-4 cytotoxicity assay; [2]): > 10 µM

COCCCOc1cc2c(cc1Cl)-c1cc(=O)c(C(=O)O)cn1N1CC(C)(C)C[C@@H]21 (single isomer, unassigned) [Example 30]
EC50 ([1]; Hepatitis B virus, 120 h): 0.01 µM
CC50 at 5 days (MT-4 cytotoxicity assay; [2]): > 10 µM

COCCCOc1cc2c(cc1Cl)-c1cc(=O)c(C(=O)O)cn1[C@@H]1[C@H]2CCC1(C)C (single isomer, unassigned) [Example 34]
EC50 ([1]; Hepatitis B virus, 120 h): 0.22 µM
CC50 at 5 days (MT-4 cytotoxicity assay; [2]): > 10 µM

COCCCOc1cc2c(cc1Cl)-c1cc(=O)c(C(=O)O)cn1[C@H]1[C@H]2CCC1(C)C (single isomer, unassigned) [Example 35]
EC50 ([1]; Hepatitis B virus, 120 h): 0.049 µM
CC50 at 5 days (MT-4 cytotoxicity assay; [2]): > 10 µM

COCCCOc1cc2c(cc1Cl)-c1cc(=O)c(C(=O)O)cn1[C@@H]1[C@@H]2CCC1(C)C (single isomer, unassigned) [Example 36]
EC50 ([1]; Hepatitis B virus, 120 h): 0.17 µM
CC50 at 5 days (MT-4 cytotoxicity assay; [2]): > 10 µM

COCCCOc1cc2c(cc1Cl)-c1cc(=O)c(C(=O)O)cn1N1[C@H]2COCC1(C)C (single isomer, unassigned) [Example 39]
EC50 ([1]; Hepatitis B virus, 120 h): 0.68 µM
CC50 at 5 days (MT-4 cytotoxicity assay; [2]): > 10 µM

COCCCOc1cc2c(cc1Cl)-c1cc(=O)c(C(=O)O)cn1N1CCC(C)(C)[C@H]21 (single isomer, unassigned) [Example 47]
EC50 ([1]; Hepatitis B virus, 120 h): 0.016 µM
CC50 at 5 days (MT-4 cytotoxicity assay; [2]): 1.7 µM

COCCCOc1cc2c(cc1Cl)-c1cc(=O)c(C(=O)O)cn1N1CCC(C)(C)[C@@H]21 (single isomer, unassigned) [Example 48]
EC50 ([1]; Hepatitis B virus, 120 h): > 1 µM
CC50 at 5 days (MT-4 cytotoxicity assay; [2]): 2.2 µM

COCCCOc1cc2c(cc1Cl)-c1cc(=O)c(C(=O)O)cn1N1[C@@H]2COCC1(C)C (single isomer, unassigned) [Example 51]
EC50 ([1]; Hepatitis B virus, 120 h): 0.0029 µM
CC50 at 5 days (MT-4 cytotoxicity assay; [2]): > 10 µM

COCCCOc1cc2c(cc1OC)-c1cc(=O)c(C(=O)O)cn1N1[C@@H]2CCCC1(C)C (single isomer, unassigned) [Example 52]
EC50 ([1]; Hepatitis B virus, 120 h): 0.00091 µM
CC50 at 5 days (MT-4 cytotoxicity assay; [2]): > 10 µM

COCCCOc1cc2c(cc1OC)-c1cc(=O)c(C(=O)O)cn1N1[C@H]2CCCC1(C)C (single isomer, unassigned) [Example 53]
EC50 ([1]; Hepatitis B virus, 120 h): 0.0091 µM
CC50 at 5 days (MT-4 cytotoxicity assay; [2]): 9.7 µM

COCCCOc1cc2c(cc1Cl)-c1cc(=O)c(C(=O)O)cn1N1[C@@H]2CCC12CC2 (single isomer, unassigned) [Example 56]
EC50 ([1]; Hepatitis B virus, 120 h): 0.0015 µM
CC50 at 5 days (MT-4 cytotoxicity assay; MT-4 CC50): > 10 µM

COCCCOc1cc2c(cc1Cl)-c1cc(=O)c(C(=O)O)cn1N1[C@H]2CCC12CC2 (single isomer, unassigned) [Example 57]
EC50 ([1]; Hepatitis B virus, 120 h): > 1 µM
CC50 at 5 days (MT-4 cytotoxicity assay; MT-4 CC50): > 10 µM

COCC12CC(COc3cc4c(cc3OC(F)F)-c3cc(=O)c(C(=O)O)cn3N3[C@@H]4CCC3(C)C)(C1)C2 [Compound 105, (R)-11-(difluoromethoxy)-12-((3-(methoxymethyl)bicyclo[1.1.1]pentan-1-yl)methoxy)-3,3-dimethyl-8-oxo-2,3,8,13b-tetrahydro-1H-pyrido[2,1-a]pyrrolo[1,2-c]phthalazine-7-carboxylic acid]
EC50 ([1]; Hepatitis B virus, 120 h): 0.0014 µM
CC50 at 5 days (MT-4 cytotoxicity assay; [2]): > 10 µM

CC1(C)CC[C@@H]2c3cc(C#Cc4ccc(N)nc4)c(OC(F)F)cc3-c3cc(=O)c(C(=O)O)cn3N21 [Compound 106, (R)-12-((6-aminopyridin-3-yl)ethynyl)-11-(difluoromethoxy)-3,3-dimethyl-8-oxo-2,3,8,13b-tetrahydro-1H-pyrido[2,1-a]pyrrolo[1,2-c]phthalazine-7-carboxylic acid]
EC50 ([1]; Hepatitis B virus, 120 h): 0.00037 µM
CC50 at 5 days (MT-4 cytotoxicity assay; [2]): 7.5 µM

COCc1cc2c(cc1OCC13CC(C#N)(C1)C3)[C@H]1CCC3(CC3)N1n1cc(C(=O)O)c(=O)cc1-2 [Compound 107, (R)-12′-((3-cyanobicyclo[1.1.1]pentan-1-yl)methoxy)-11′-(methoxymethyl)-8′-oxo-1′,2′,8′,13b′-tetrahydrospiro[cyclopropane-1,3′-pyrido[2,1-a]pyrrolo[1,2-c]phthalazine]-7′-carboxylic acid]
EC50 ([1]; Hepatitis B virus, 120 h): 0.0059 µM
CC50 at 5 days (MT-4 cytotoxicity assay; MT-4 CC50): 7.8 µM

COCCOCc1cc2c(cc1OC(F)F)-c1cc(=O)c(C(=O)O)cn1N1[C@@H]2CCC1(C)C [Compound 108, (R)-11-(difluoromethoxy)-12-((2-methoxyethoxy)methyl)-3,3-dimethyl-8-oxo-2,3,8,13b-tetrahydro-1H-pyrido[2,1-a]pyrrolo[1,2-c]phthalazine-7-carboxylic acid]
EC50 ([1]; Hepatitis B virus, 120 h): 0.0168 µM
CC50 at 5 days (MT-4 cytotoxicity assay; [2]): > 10 µM

COCc1cc2c(cc1OCC1(COC)CC1)[C@H]1CCC(C)(C)N1n1cc(C(=O)O)c(=O)cc1-2 [Compound 109, (R)-11-(methoxymethyl)-12-((1-(methoxymethyl)cyclopropyl)methoxy)-3,3-dimethyl-8-oxo-2,3,8,13b-tetrahydro-1H-pyrido[2,1-a]pyrrolo[1,2-c]phthalazine-7-carboxylic acid]
EC50 ([1]; Hepatitis B virus, 120 h): 0.0132 µM
CC50 at 5 days (MT-4 cytotoxicity assay; [2]): > 10 µM
